Legend:
Format in all cases: in vivo, mouse
OT2 T cells = assay: OT2 T cell pre-treatment with 4EGI-1 before adoptive transfer; conditions: 20 μM 4EGI-1 1 hour before transfer
Procedure: For functional TFH studies: OT2 T cells were isolated and activated, as described, and treated with vehicle or 20 μM 4EGI-1 for 1 hour at 37° C. in vitro prior to transfer of 2×10^6 OT2 T cells i.p. per CD45.1 recipient. Recipient animals were immunized with 100 μg OVA alum 4 days prior. Three days following transfer and 7 days following initial immunization, OT2 T cells that had formed TFH cells were determined.
For long-term studies: OT2 T cells were isolated and activated, as described, and treated with vehicle or 20 μM 4EGI-1 for 1 h at 37° C. in vitro prior to transfer of 12×10^6 OT2 T cells i.p. per CD45.1 recipient. OT2 T cells were enumerated 34 days post transfer and intracellular levels of eIF4E were determined.

pre-existing TFH cells = assay: OVA/Alum immunization, 4EGI-1 after formation of TFH cells
Procedure: OVA protein (Sigma A5503) was diluted in PBS and then in 20 mg/mL Imject Alum (ThermoFisher 77161) and mixed at room temperature for 30 minutes prior to i.p. injection of 100 μg OVA in 200 μL. When stated, mice were treated i.p. daily from day 0 to 6 or day 0 to 13 (just for TFR analysis) following OVA/Alum immunization with 25 mg/kg 4EGI-1 (MedChemExpress) or from day 7 to 13 following OVA/Alum immunization with 50 mg/kg or 75 mg/kg 4EGI-1. Vehicle control mice were administered 6 μL DMSO in 194 μL PBS i.p.
PVDF-coated 96-well plates (Millipore) were activated with methanol for 2 minutes, washed with PBS, and coated with 4 μg/mL OVA overnight at 4° C. Plates were blocked with 1% BSA for 2 hours at 37° C. prior to incubation with 1×10^7 splenocytes in RPMI containing 2% Ultra-low IgG FCS, 55 μM 2ME, and 100 U/mL penicillin and 100 μg/mL streptomycin in the top well. Cells were diluted by 1/2 each row going down the plate and incubated immobile overnight at 37° C. Plates were washed with water+0.05% Tween 20 for 5 min prior to 3 washes in PBS+0.05% Tween-20 for 10 minutes. Plates were incubated with 1:1000 HRP-coupled goat anti-mouse IgG1 antibody (Southern Biotech) in PBS+0.05% Tween 20 for 2 h prior to 3 washes in PBS+0.05% Tween 20 and incubation in tetramethylbenzidine (TMB) ELISA substrate buffer (ThermoFisher). Plates were washed once in distilled deionized water and spots were manually enumerated and antibody-secreting cells (ASC) per million splenocytes was determined.
For quantification of OVA-specific IgG1, high-binding 96-well plates (Costar) were coated with 10 μg/mL OVA protein. For S. aureus-specific IgG1, plates were coated with heat-killed S. aureus (heat-killed at 80° C. for 30 min). For total IgE, plates were coated with 2 μg/mL rat anti-mouse IgE (Southern Biotech). Following overnight incubation at 4° C., plates were blocked with 1% BSA for 30 min at 37° C. After blocking, serum (diluted 1/20 initially then 1/2 down the plate) was incubated at 37° C. for 2 hours, plates were washed 3 times in PBS and then incubated with 1:1000 anti-mouse IgG1-HRP (Southern Biotech) or anti-mouse IgE-HRP (Southern Biotech) for 1 hour at 37° C. Plates were washed 3 times in PBS and incubated with TMB substrate. Following development, TMB Stop Solution (BioLegend®) was added and plates were read at […].

EAE mice = assay: Active EAE (MOG33-55/CFA), 4EGI-1 after onset of clinical symptoms
Procedure: Ten-week old female mice purchased from Jackson Laboratory were subcutaneously injected at two sites with 100 μL […] emulsified in CFA (Hooke Labs) per flank. On the same day, 6 hours later, and on day 2, mice were injected with 100 ng of pertussis toxin in 200 μL i.p. Mice were monitored daily and scored on a scale of 0-5 where 0, no disease; 1, tail paralysis; 2; hind limb paresis; 3, complete hind limb paralysis; 4, front limb weakness and hind limb paralysis, and 5, moribund state. When stated, mice were either administered 25 mg/kg 4EGI-1 or vehicle i.p. from d 0 to 21 following EAE induction or 75 mg/kg 4EGI-1 or vehicle i.p. from day 12 to 21 following EAE induction and randomization. LFB-H images imported into FIJI underwent color deconvolution to isolate myelin staining. A binary image was generated and % myelination of the spinal cord was calculated. Spinal cords from mice not subjected to EAE were set to 100% and all other samples from the same group were normalized. H&E images imported into FIJI underwent color deconvolution to isolate hematoxylin staining. A binary image was generated and % infiltration of the spinal cord of was calculated. Five-micron sections of paraffin embedded tissue were stained with Akoya Biosciences® Opal™ multiplex automation kit reagents unless stated otherwise. Automated staining was performed on Leica BondRX® autostainer. The protocol was performed according to manufacturers' instructions with primary antibodies to CD19 (Cell Signaling Technology, cat #90176) and CD4 (Cell Signaling Technology, cat #25229). Briefly, all slides underwent sequential epitope retrieval with Leica Biosystems epitope retrieval 2 solution (EDTA based, pH9, Cat. AR9640), primary and secondary antibody incubation and tyramide signal amplification (TSA) with Opal® fluorophores Op690 and Op520. Primary and secondary antibodies were removed during epitope retrieval steps while fluorophores remain covalently attached to the epitope. Semi-automated image acquisition was performed on a Vectra® Polaris multispectral imaging system. After whole slide scanning at 10× the tissue was manually outlined to select fields for multispectral imaging at 20×. Phenochart® software from Akoya Biosciences was used for spectral unmixing of the whole slide scans. Scans were imported into QuPath and representative images were exported into FIJI.

[1] = 75 mg/kg, day 7 to 13 after OVA/Alum
[2] = 4EGI-1 day 7 to 13 after OVA/Alum

## O=C(O)C(Cc1ccccc1[N+](=O)[O-])=NNc1nc(-c2ccc(Cl)c(Cl)c2)cs1 (mixture of isomers) [4EGI-1]
OT2 T cells; 34 days post-transfer
  OT2 T cells populating the spleen vs non-treated OT2 T cells: equal
OT2 T cells; assayed 7 days
  OT2 T cells populating the spleen vs non-treated OT2 T cells: equal
OT2 T cells; day 34 post-transfer
  intracellular levels of eIF4E in recovered OT2 T cells: sustained reduction
OT2 T cells; following OVA/Alum immunization
  reduction in number of OT2 TFH cells in the spleen: two-thirds
pre-existing TFH cells; [1]
  reduction of CD4+ T cell protein synthesis (SUnSET): approximately half
  total number of CD4+ T cells in spleen: without significantly reducing
pre-existing TFH cells; [2]
  reduction of levels of GC B cells: 3 fold
  reduction of levels of OVA-specific IgG1 ASC cells: 3 fold
  reduction of levels of pre-existing splenic CD4+ TFH cells: 3 fold
  serum OVA-specific IgG1 antibody: moderately reduced
EAE mice; 75 mg/kg from day 12
  day by which mice entered remission: ≤ 15 days
  decrease of CD4+ T cells producing IFN-γ in spinal cord and brain: 4 fold
  decrease of CD4+ T cells producing IL-17A in spinal cord and brain: 4 fold
  decreased infiltration and retention of CD4+ T cells in brain: 4 fold
  time to marked improvement in clinical symptoms after 4EGI-1 administration: 2 to 3 days
EAE mice; 75 mg/kg from day 12, H&E
  spinal cord immune cell infiltration: marked reduction
EAE mice; 75 mg/kg from day 12, day 18
  weight compared to vehicle-treated animals: increased
EAE mice; 75 mg/kg from day 12, day 21
  decreased infiltration and retention of CD4+ T cells in spinal cord: 4 fold
  decreased levels of splenic TFH cells: 3 fold
  demyelination compared to vehicle-treated mice: reduced
EAE mice; 75 mg/kg from day 12, day 21, Luxol fast blue
  myelination regained, relative to normal levels: ~90%
EAE mice; 75 mg/kg from day 12, immunofluorescence
  ELFs / CD4+ T cell clusters in spinal cord: smaller clusters
EAE mice; 75 mg/kg from day 12, vs vehicle-treated mice
  progression of disease: inhibited

Reference: patent US12168003B2, “Selective inhibition of T follicular helper cells for treatment of autoimmune disorders” (priority 2019, dated 2024)
